Measurements reported in paper PMC10797628.

Experiments:
human 5-HT1D receptor [1] = molecular target: T1, human 5-HT1D receptor (Homo sapiens, UniProt P28221); assay: cAMP accumulation (LANCE Ultra TR-FRET) in HEK293T cells, WT 5-HT1D; type: cell-based; details: for 5-HT1D EMAX (%): WT receptor; for 5-HT1D EMAX (%) / Emax: normalized to basal (0%) and 10 μM 5-CT (100%); for EC50: 5-HT1D pEC50, WT receptor, cAMP accumulation, HEKt cells, mean ± SD; for Emax: HEK-293T, read-out: 5-HT1D EMAX (%), WT receptor
T1 construct: host or cells: HEK293T
T1 sequence (P28221 whole entry): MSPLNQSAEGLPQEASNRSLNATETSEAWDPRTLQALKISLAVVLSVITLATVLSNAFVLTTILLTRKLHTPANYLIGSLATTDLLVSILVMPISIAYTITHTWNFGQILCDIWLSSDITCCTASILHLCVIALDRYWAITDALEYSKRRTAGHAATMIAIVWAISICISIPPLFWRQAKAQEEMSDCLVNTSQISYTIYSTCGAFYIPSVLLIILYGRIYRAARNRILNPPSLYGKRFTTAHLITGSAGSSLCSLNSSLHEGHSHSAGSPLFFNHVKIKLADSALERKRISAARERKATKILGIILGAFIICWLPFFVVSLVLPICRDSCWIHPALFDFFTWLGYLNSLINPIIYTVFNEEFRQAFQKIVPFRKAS
Procedure: (§1) Briefly, cells transfected with the desired receptor construct and compounds were incubated in the dark for 90 min at 37 °C. After incubation, cAMP detection reagents were added, and TR-FRET was used to quantify the cAMP produced.
(§2) The functional activity of compounds was determined by stimulating cells expressing the desired receptor with FSK and test compound in parallel with 12 known concentrations of cAMP. The known concentrations of cAMP were used to create a standard curve for each experiment that was used to interpolate the unknown values of cAMP in wells with test compounds. […] The EC50 and EMAX values were determined using the “dose response – log[agonist] vs response (three parameter)” nonlinear regression model in Prism and transformed to pEC50 values, reported as mean ± SD.
(§3) Summary of functional assay conditions at various 5-HT1 receptor point mutation constructs.

human 5-HT1B receptor [2] = molecular target: T2, human 5-HT1B receptor (Homo sapiens, UniProt P28222); assay: cAMP accumulation (LANCE Ultra TR-FRET) in HEK293T cells, WT 5-HT1B; type: cell-based; details: for 5-HT1B EMAX (%) / Emax: normalized to basal (0%) and 10 μM 5-CT (100%); for EC50: 5-HT1B pEC50, WT receptor; for Emax: HEK-293T, read-out: 5-HT1B EMAX (%), WT receptor
T2 construct: host or cells: HEK293T
T2 sequence (P28222 whole entry): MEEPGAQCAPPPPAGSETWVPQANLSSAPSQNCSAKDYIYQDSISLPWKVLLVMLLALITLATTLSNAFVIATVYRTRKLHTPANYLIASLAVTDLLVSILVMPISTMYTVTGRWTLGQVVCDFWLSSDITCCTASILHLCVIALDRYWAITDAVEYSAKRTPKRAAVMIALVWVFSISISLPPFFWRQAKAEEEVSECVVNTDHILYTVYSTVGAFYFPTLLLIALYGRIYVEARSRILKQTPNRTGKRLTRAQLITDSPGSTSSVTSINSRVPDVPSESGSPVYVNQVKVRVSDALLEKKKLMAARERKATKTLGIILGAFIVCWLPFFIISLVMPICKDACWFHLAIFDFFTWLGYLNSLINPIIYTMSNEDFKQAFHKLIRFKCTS
Procedure: as §1, §2, §3

S5.42A 5-HT1B receptor = S5.42A 5-HT1B receptor (Homo sapiens, UniProt P28222, S212A); assay: cAMP accumulation in HEK293T cells, S5.42A 5-HT1B; type: cell-based; set-up: host or cells: HEK293T; details: point-mutated receptor, 3 independent experiments
Chain of S5.42A 5-HT1B receptor (P28222 whole entry S212A): as the sequence (P28222 whole entry) above, with S212A counted along it
Procedure: as §1, §2
Cell Type Receptor Cell Density [Forskolin] Incubation time
as §3

human 5-HT1F receptor = molecular target: T3, human 5-HT1F receptor (Homo sapiens, UniProt P30939); assay: Radioligand binding (saturation and competition), WT 5-HT1F
T3 construct: host or cells: HEK293T
T3 sequence (P30939 1-366): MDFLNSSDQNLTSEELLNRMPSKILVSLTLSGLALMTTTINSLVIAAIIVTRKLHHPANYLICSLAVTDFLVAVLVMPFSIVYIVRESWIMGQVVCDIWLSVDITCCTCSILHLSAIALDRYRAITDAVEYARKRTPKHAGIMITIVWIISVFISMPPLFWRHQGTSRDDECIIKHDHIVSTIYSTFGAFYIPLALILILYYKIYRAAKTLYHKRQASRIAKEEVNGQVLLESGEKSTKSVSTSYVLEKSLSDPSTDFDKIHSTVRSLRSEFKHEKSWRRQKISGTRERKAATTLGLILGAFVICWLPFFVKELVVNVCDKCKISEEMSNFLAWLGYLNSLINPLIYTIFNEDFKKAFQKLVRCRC

human 5-HT1D receptor [3] = molecular target: T1, human 5-HT1D receptor; assay: Radioligand binding (saturation and competition), WT 5-HT1D; details: Affinity (pKi ± SD) 5-HT1D, WT receptor; [^3H]5-CT competition; mean ± SD
human 5-HT1A receptor [4] = molecular target: T4, human 5-HT1A receptor (Homo sapiens, UniProt P08908); assay: Radioligand binding (saturation and competition), WT 5-HT1A; details: Affinity (pKi ± SD) 5-HT1A, WT receptor; [^3H]5-CT competition; mean ± SD
T4 construct: host or cells: HEK293T
T4 sequence (P08908 1-422): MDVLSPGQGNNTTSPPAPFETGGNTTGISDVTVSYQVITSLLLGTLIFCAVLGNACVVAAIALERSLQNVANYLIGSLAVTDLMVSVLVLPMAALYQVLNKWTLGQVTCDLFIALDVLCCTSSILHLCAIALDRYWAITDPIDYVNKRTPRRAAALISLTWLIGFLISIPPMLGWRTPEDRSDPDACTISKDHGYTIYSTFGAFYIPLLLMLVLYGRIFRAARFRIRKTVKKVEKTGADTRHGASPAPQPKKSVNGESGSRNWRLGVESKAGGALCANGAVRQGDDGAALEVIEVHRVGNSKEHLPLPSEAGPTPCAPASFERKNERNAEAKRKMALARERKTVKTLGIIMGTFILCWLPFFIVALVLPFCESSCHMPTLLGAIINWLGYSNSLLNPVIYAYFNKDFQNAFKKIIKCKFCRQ

human 5-HT1B receptor [5] = molecular target: T2, human 5-HT1B receptor; assay: Radioligand binding (saturation and competition), WT 5-HT1B; details: Affinity (pKi ± SD) 5-HT1B, WT receptor; [^3H]5-CT competition; mean ± SD
human 5-HT1A receptor [6] = molecular target: T4, human 5-HT1A receptor; assay: cAMP accumulation (LANCE Ultra TR-FRET) in HEK293T cells, WT 5-HT1A; type: cell-based; details: for EC50: 5-HT1A pEC50, WT receptor, cAMP accumulation, HEKt cells, mean ± SD; for Emax: HEK-293T, read-out: 5-HT1A EMAX (%), WT receptor
Procedure: as §1, §2, §3

[7] = cAMP accumulation, HEKt cells, mean ± SD
[8] = normalized to basal (0%) and 10 μM 5-CT (100%)

SMILES | 5-HT1D EMAX (%) (human 5-HT1D receptor [1]) | 5-HT1B pEC50 (human 5-HT1B receptor [2]; WT receptor, cAMP accumulation, HEKt cells, mean ± SD) | 5-HT1B EMAX (%) (human 5-HT1B receptor [2]; WT receptor) | change in potency (qualitative) (S5.42A 5-HT1B receptor) | Ki (human 5-HT1F receptor) | Ki (human 5-HT1D receptor [3]) | EC50 (human 5-HT1D receptor [1]) | Emax (human 5-HT1D receptor [1]) | Ki (human 5-HT1A receptor [4]) | EC50 (human 5-HT1B receptor [2]; [7]) | Emax (human 5-HT1B receptor [2]) | Ki (human 5-HT1B receptor [5]) | EC50 (human 5-HT1A receptor [6]) | Emax (human 5-HT1A receptor [6]; [8]) | 5-HT1A EMAX (%) (human 5-HT1A receptor [6]; WT receptor, normalized to basal (0%) and 10 μM 5-CT (100%))
NCCc1c[nH]c2ccc(C(N)=O)cc12 [5-CT, 5-carboxamidotryptamine, reference compound] | 101 ± 1% | 8.46 ± 0.18 | 100 ± 1% | significant reduction | – | – | – | – | – | – | – | – | – | – | –
CCCN(CCC)[C@H]1CCc2c(cccc2-c2ccccc2Cl)C1 [(S)-DCPT] | – | – | 103 ± 2% | – | 7590 nM | 0.562 nM | 2.4 nM | 101 ± 2% | 1.41 nM | 0.288 nM | > 90% | 0.398 nM | 26.3 nM | 92 ± 4% | –
CN(C)[C@H]1CCc2c(cccc2-c2cccn2C)C1 [(S)-NMP] | 66 ± 6% | – | 54 ± 5% | – | > 10000 nM | 3.98 nM | 8.32 nM | < 85% | 20.4 nM | 11.2 nM | – | 5.75 nM | 27.5 nM | < 85% | 70 ± 5%
CCCN(CCC)[C@H]1CCc2c(cccc2-c2ccccc2F)C1 [(S)-DFPT] | – | – | 100 ± 2% | – | 8510 nM | 0.155 nM | 1.17 nM | 99 ± 2% | 1.45 nM | 1.23 nM | > 90% | 2 nM | 12.6 nM | 100 ± 2% | –
